# In paper PMC5943930, “Identification of Inhibitors Targeting Ferredoxin-NADP^+ Reductase from the Xanthomonas citri subsp. citri Phytopathogenic Bacteria” (Molecules : A Journal of Synthetic Chemistry and Natural …, 2017):
# Read-outs that look alike come from different tables or passages of the source.
# Columns and labels:
# XccFPR [1] = target: T1, XccFPR (Xanthomonas citri pv. citri, UniProt A0AAI7ZED9); test: Steady-state kinetic parameters of XccFPR NADPH-dependent DCPIP diaphorase activity; type: biochemical, Xanthomonas citri subsp. citri
# T1 sequence (A0AAI7ZED9 1-259): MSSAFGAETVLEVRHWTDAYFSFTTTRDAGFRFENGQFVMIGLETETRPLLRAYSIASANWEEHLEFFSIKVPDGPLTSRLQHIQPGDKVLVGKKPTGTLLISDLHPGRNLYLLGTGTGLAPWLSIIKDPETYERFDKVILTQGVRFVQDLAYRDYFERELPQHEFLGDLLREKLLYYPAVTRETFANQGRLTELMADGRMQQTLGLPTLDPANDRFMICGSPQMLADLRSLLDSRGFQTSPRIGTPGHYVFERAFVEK
# Method: When assayed in regular cuvettes, the DCPIP diaphorase activity of XccFPR was determined at 25 °C using a Cary 100 (Agilent Technologies Inc., Santa Clara, CA, USA) spectrophotometer as previously established. […] Positive controls (without any hit compound) were included in every reaction set. […] All kinetic experiments were performed in triplicate. The effect of the inhibitors on Km and kcat was determined by fitting the datasets to the Michaelis-Menten model. Additionally, data were globally fit to either Lineweaver-Burk equations for uncompetitive or non-competitive inhibition, yielding Ki for each compound (Equations (1) and (2), respectively).
# XccFPR [2] = target: T1, XccFPR; test: Thermal stability of XccFPR, midpoint temperature for flavin release (TmFAD); type: binding, Xanthomonas citri subsp. citri; details: 4 µM XccFPR
# Source text: The increase in fluorescence of the FAD cofactor when dissociated from the protein upon thermal unfolding was used to evaluate XccFPR stability under different conditions and to assess related midpoint temperature for flavin release (TmFAD). Fluorescence thermal denaturation curves were monitored on 96-well plates using a Stratagene Mx3005P qPCR detection system (Agilent Technologies Inc., Santa Clara, CA, USA). A FAM filter set (λexc = 492 nm; λem = 516 nm), which overlaps the fluorescence spectrum of the isoalloxazine ring was used to evaluate XccFPR midpoint temperature for flavin release (TmFAD) when free or in the presence of selected compounds. Measurements were performed using 4 µM protein in 50 mM Tris/HCl, pH 8.0 in a 100 µL final volume. Each measurement was done in triplicate.
# XccFPR [3] = target: T1, XccFPR; details: ferricyanide as electron acceptor; cited from earlier work
# XccFPR [4] = target: T1, XccFPR; test: Inhibition constants and mechanisms, XccFPR diaphorase activity as a function of NADPH at increasing inhibitor concentrations; type: biochemical, Xanthomonas citri subsp. citri; details: 25 °C, 50 mM Tris/HCl, 2% DMSO, pH 8.0; for Ki: global fit to Lineweaver–Burk inhibition model; for Inhibition Mechanism: versus NADPH
# Method: (§1) When assayed in regular cuvettes, the DCPIP diaphorase activity of XccFPR was determined at 25 °C using a Cary 100 (Agilent Technologies Inc., Santa Clara, CA, USA) spectrophotometer as previously established. […] Positive controls (without any hit compound) were included in every reaction set. […] The DMSO concentration was kept at 2% in all samples. All kinetic experiments were performed in triplicate. The effect of the inhibitors on Km and kcat was determined by fitting the datasets to the Michaelis-Menten model. Additionally, data were globally fit to either Lineweaver-Burk equations for uncompetitive or non-competitive inhibition, yielding Ki for each compound (Equations (1) and (2), respectively).
# (1) [e]/V0=(1+[I]/K^′i)/kcat+Km/kcat·1/[S]
# (2) [e]/V0=(1+[I]/Ki)/kcat+(1+[I]/Ki)·Km/kcat·1/[S]
# XccFPR [5] = target: T1, XccFPR; test: NADPH-dependent DCPIP diaphorase activity of XccFPR, dose-response of inhibitors; type: biochemical, Xanthomonas citri subsp. citri; details: for inhibitory effect on XccFPR (in words): C12 derived compounds D1–D8
# Method: as §1
# AnFNR = target: T2, AnFNR (Nostoc sp., UniProt P21890); test: NADPH-dependent DCPIP diaphorase activity of AnFNR, dose-response of inhibitors; type: biochemical, Anabaena PCC 7119; details: 95 µM DCPIP, 50 μM NADPH; for IC50 / ICmax (concentration causing maximal inhibition): 25 °C, 2% DMSO, pH 8.0, 4 nM AnFNR; for IC50: 50 mM Tris/HCl, compound 0–800 μM; for % Inhibition at ICmax: 4 nM AnFNR
# T2 construct: made in house; host or cells: Escherichia coli
# Method: We finally assessed the selectivity of our XccFPR inhibitors by testing the diaphorase activity of the plastidic Anabaena PCC 7119 FNR (AnFNR) at increasing concentrations of D2, D5 and D8 (Table 3).
# as §1
# Xcc [6] = test: Xcc growth/viability in liquid SB medium (colony-forming capacity); type: cell-based, Xanthomonas citri subsp. citri; details: 1 mM compound, 28 °C, 0–6 h, control 2% DMSO
# Method: (§2) To evaluate the sensitivity of Xcc to C5, C12, C17 and C19, 100 µL of a bacterial suspension (containing ~10^9 cells mL^−1) were mixed with 4 mL of SB medium (5 g L^−1 sucrose, 5 g L^−1 yeast extract, 5 g L^−1 peptone, and 1 g L^−1 glutamic acid, pH 7.0) and 0.7% (w v^−1) molten agar and poured onto SB-1.5% (w v^−1) agar plates supplemented with 25 µg mL^−1 ampicillin. After hardening, 2 µL of a 10, 100 and 1000 µM solution of each compound were added onto the agar surface. The zones of growth inhibition were photographed after incubation for 24 h at 28 °C. To assess the compound inhibition effect on Xcc growth in liquid medium, overnight cultures were subcultured into fresh SB medium at 2% inoculums and grown for 6 h in the presence of 1 mM C12. Samples were removed at 0, 2, 4 and 6 h, serially diluted and plated on SB-1.5% (w v^−1) agar. Colonies were counted after 48 h of incubation at 28 °C.
# Xcc [7] = test: Xcc growth inhibition on SB-agar plates; type: cell-based, Xanthomonas citri subsp. citri; details: 24 h at 28 °C
# Method: as §2
# [8] = 25 °C, 2% DMSO, pH 8.0, 20 nM XccFPR, 95 µM DCPIP, 50 μM NADPH
# [9] = 25 °C, 50 mM Tris/HCl, 2% DMSO, pH 8.0, 20 nM XccFPR, 95 µM DCPIP, 50 μM NADPH
# [10] = 25 °C, 50 mM Tris/HCl, 2% DMSO, pH 8.0, 20 nM XccFPR, 95 µM DCPIP, 50 μM NADPH, compound 0–800 μM
# [11] = compound 2 mM, NADP+ 50 µM, DMSO 2 %
# [12] = compound 1 mM, NADP+ 50 µM, DMSO 2 %
# T2 sequence (P21890 138-440 limits assumed): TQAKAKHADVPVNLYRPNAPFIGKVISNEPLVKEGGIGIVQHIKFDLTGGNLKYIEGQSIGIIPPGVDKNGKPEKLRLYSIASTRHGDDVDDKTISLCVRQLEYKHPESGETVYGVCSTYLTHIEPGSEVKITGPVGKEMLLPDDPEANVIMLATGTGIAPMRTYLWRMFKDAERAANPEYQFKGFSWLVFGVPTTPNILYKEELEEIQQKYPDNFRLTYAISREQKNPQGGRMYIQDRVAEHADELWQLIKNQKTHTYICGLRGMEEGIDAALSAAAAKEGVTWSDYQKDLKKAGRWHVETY
smiles,measurement,setting,value
C[S+](C)[O-] [DMSO],effect of solvent on XccFPR enzyme activity,XccFPR [1]; DMSO below 3%,did not modify the kinetic parameters
same,effect of solvent on XccFPR enzyme activity,XccFPR [1]; DMSO percentages larger than 3%,decreased the maximal rate constant
same,ΔTmFAD,XccFPR [2]; DMSO 2 %,-0.4±0.2 °C
same,TmFAD,"XccFPR [2]; DMSO 2 %, 50 mM Tris/HCl",40.6 ± 0.1 °C
same,TmFAD,XccFPR [2]; DMSO 5 %,39.0 ± 0.1 °C
same,TmFAD,XccFPR [2]; DMSO 10 %,37.7 ± 0.1 °C
"NC(=O)C1=CN([C@@H]2O[C@H](COP(=O)(O)OP(=O)(O)OC[C@H]3O[C@@H](n4cnc5c(N)ncnc54)[C@H](OP(=O)(O)O)[C@@H]3O)[C@@H](O)[C@H]2O)C=CC1 [NADPH, reference compound]",kcat,"XccFPR [1]; NADPH-dependent DCPIP diaphorase activity, 25 °C, pH 8.0",22.6 ± 2.3 s⁻¹
same,Km,"XccFPR [1]; read-out: Km^NADPH, DCPIP as electron acceptor, 25 °C, pH 8.0",6.6 ± 1.1 µM
same,kcat,XccFPR [3],122 ± 18 s⁻¹
"Cc1c(S(=O)(=O)c2ccc(Cl)cc2)csc1C(=O)Nc1ccc(F)cc1F [D8, 4-(4-chlorobenzenesulfonyl)-N-(2,4-difluorophenyl)-3-methylthiophene-2-carboxamide]",Ki,XccFPR [4],62 ± 19 µM
same,Inhibition Mechanism,XccFPR [4],Non-competitive
same,IC50,XccFPR [5],38 ± 1 µM
same,inhibitory effect on XccFPR (in words),XccFPR [5],moderate IC50 but high concentrations were required to abolish XccFPR activity
same,% Inhibition at ICmax,XccFPR [5]; [8],100 ± 1%
same,IC50,AnFNR,122 ± 1 µM
same,ICmax (concentration causing maximal inhibition),AnFNR,>350 µM
same,% Inhibition at ICmax,AnFNR,~73%
CSc1sc(NC(=O)Nc2cccc(C(F)(F)F)c2)cc1C#N [D2],Ki,XccFPR [4],28 ± 2 µM
same,Inhibition Mechanism,XccFPR [4],uncompetitive inhibitor
same,ICmax (concentration causing maximal inhibition),XccFPR [5]; [9],175 ± 1 µM
same,IC50,XccFPR [5]; [10],26 ± 1 µM
same,inhibitory effect on XccFPR (in words),XccFPR [5],moderate IC50 but high concentrations were required to abolish XccFPR activity
same,% Inhibition at ICmax,XccFPR [5]; [8],100 ± 1%
same,TmFAD,"XccFPR [2]; compound 2 mM, DMSO 2 %",41.7 ± 0.1 °C
same,ΔTmFAD,"XccFPR [2]; compound 2 mM, DMSO 2 %",0.7±0.2 °C
same,TmFAD,XccFPR [2]; [11],46.0 ± 0.1 °C
same,ΔTmFAD,XccFPR [2]; [11],5.0±0.2 °C
same,IC50,AnFNR,27 ± 1 µM
same,ICmax (concentration causing maximal inhibition),AnFNR,100 ± 2 µM
same,% Inhibition at ICmax,AnFNR,99 ± 11%
NC(=O)c1ccc[n+]([C@@H]2O[C@H](COP(=O)([O-])OP(=O)(O)OC[C@H]3O[C@@H](n4cnc5c(N)ncnc54)[C@H](OP(=O)(O)O)[C@@H]3O)[C@@H](O)[C@H]2O)c1 [NADP^+],TmFAD,"XccFPR [2]; NADP+ 50 µM, DMSO 2 %",46.7 ± 0.1 °C
same,ΔTmFAD,"XccFPR [2]; NADP+ 50 µM, DMSO 2 %",5.7±0.2 °C
same,TmFAD,"XccFPR [2]; NADP+ 50 µM, no DMSO",47.2 ± 0.1 °C
same,ΔTmFAD,"XccFPR [2]; NADP+ 50 µM, no DMSO",6.2±0.2 °C
"O=C(Nc1ccc(Cl)cc1)Nc1nnc(SCc2ccc(Cl)cc2)s1 [D5, 1-[5-(4-Chloro-benzylsulfanyl)-[1,3,4]thiadiazol-2-yl]-3-(4-chloro-phenyl)-urea]",Ki,XccFPR [4],4.3 ± 1.1 µM
same,Inhibition Mechanism,XccFPR [4],Non-competitive
same,IC50,XccFPR [5],6.6 ± 1.1 µM
same,% Inhibition at ICmax,XccFPR [5]; [8],100 ± 2%
same,TmFAD,"XccFPR [2]; compound 1 mM, DMSO 2 %",41.4 ± 0.1 °C
same,ΔTmFAD,"XccFPR [2]; compound 1 mM, DMSO 2 %",0.4±0.2 °C
same,TmFAD,XccFPR [2]; [12],46.9 ± 0.1 °C
same,ΔTmFAD,XccFPR [2]; [12],5.9±0.2 °C
same,IC50,AnFNR,102 ± 1 µM
same,ICmax (concentration causing maximal inhibition),AnFNR,>300 µM
same,% Inhibition at ICmax,AnFNR,~47%
"COc1cc(C2SCCS2)cc([N+](=O)[O-])c1OS(=O)(=O)c1cc(Cl)ccc1Cl [C11, 4-(1,3-dithiolan-2-yl)-2-methoxy-6-nitrophenyl 2,5-dichlorobenzene-1-sulfonate]",IC50,XccFPR [5],78 ± 1 µM
same,% Inhibition at ICmax,XccFPR [5]; [8],92 ± 5%
"CC(C)N(C(=O)c1ccc(-c2ccccc2F)cc1)C(C)C [C6, 4-(2-fluorophenyl)-N,N-bis(propan-2-yl)benzamide]",IC50,XccFPR [5],> 605 µM
same,% Inhibition at ICmax,XccFPR [5]; [8],~70%
"CSc1sc(NC(=O)Nc2ccc(F)c(Cl)c2)c(-c2ccc(Cl)cc2)c1C#N [C12, 1-(3-chloro-4-fluorophenyl)-3-[3-(4-chlorophenyl)-4-cyano-5-(methylsulfanyl)thiophen-2-yl]urea]",Ki,XccFPR [4],4.2 ± 0.9 µM
same,Inhibition Mechanism,XccFPR [4],Non-competitive
same,growth inhibition in liquid medium (bacterial viability),Xcc [6],decrease of bacterial viability
same,Xcc growth inhibition on solid SB medium,"Xcc [7]; 2 µL of 10, 100 and 1000 µM solutions",inhibited Xcc growth at all concentrations assayed
same,lowest concentration assayed that inhibited Xcc growth,Xcc [7]; solid SB medium,10 µM
same,IC50,XccFPR [5],7.7 ± 1 µM
"O=c1c2ccccc2[se]n1-c1ccccc1 [C2, 2-Phenyl-1,2-benzoselenazol-3-one(ebselen), reference compound]",ICmax (concentration causing maximal inhibition),XccFPR [5]; [9],300 ± 1 µM
same,IC50,XccFPR [5]; [10],27 ± 1 µM
same,% Inhibition at ICmax,XccFPR [5]; [8],over 90%
same,% Inhibition at ICmax,"XccFPR [5]; 25 °C, 2% DMSO, pH 8.0, 20 nM XccFPR, 95 µM DCPIP, 50 μM NADPH, listed as 2",95 ± 3%
